Experimental data: patent publication US20070219144A1, “IMMUNOMODULATORY SACCHARIDE COMPOUNDS” (University of Alberta, priority 2006, published 2007)
“Also recorded” adds a separate entry of the source.

Assays:
Assay type in all cases: cell-based, human
IL-12p70 [1] = assay: Inhibition of IFN-γ/SAC-induced IL-12p70 production in THP-1 cells after pre-incubation (ELISA); conditions: for inhibition of IL-12p70 production induced by IFN-γ/SAC: 5 μM, FIG. 13; for inhibition of IL-12p70 response induced by IFN-γ/SAC: 10 or 100 μg/mL, FIG. 11B; for inhibition of the cytokine response (IL-12p70) induced by IFN-γ/SAC: general statement, no concentration given
TNF-α [2] = assay: Inhibition of IFN-γ/SAC-induced TNF-α production in THP-1 cells after pre-incubation (ELISA); conditions: for induction of TNF-α production in the IFN-γ/SAC assay / inhibition of TNF-α production induced by IFN-γ/SAC: 5 μM, FIG. 12; for inhibition of TNF-α response induced by IFN-γ/SAC: FIG. 11A; for inhibition of the cytokine response (TNF-α) induced by IFN-γ/SAC: general statement, no concentration given
TNF-α [3] = assay: TNF-α induction in THP-1 cells by compound alone (ELISA); conditions: 10 or 100 μg/mL
Procedure: (§1) Experiments were conducted to determine the role for the MTX residue. Given its location in the capping motif in LAM from M. tuberculosis, it was hypothesized that the residue may function as an immunomodulatory species. Thus, the ability of 3 and 34 to induce or inhibit the production of the TNF-α and IL-12p70 was evaluated using a human monocytic cell line (THP-1). THP-1 cells were re-suspended at a concentration of 5×10^6 cells/mL in RPMI 1640+10% FCS+1% GPS (200 mM penicillin/streptomycin (Sigma UK)+2 mM L-glutamine (Invitrogen)) and plated into a 48-well plate (500 μL/well). Cells were treated with either 3 or 34 (100 μg and 10 μg/mL) or AraLAM or ManLAM (10 μg/mL) for 24 hours and then stimulated for a further 8 hours with a combination of Staphylococcus aureus Cowan (SAC) (Pansorbin™, Calbiochem, UK) and human IFNγ (1000 U/mL, Preprotech). Following incubation, the supernatants were collected and stored in 200 μL aliquots (−80° C.) and analyzed by ELISA (R&D systems) for IL12p70 and TNF-α production.

IL-12p70 [4] = assay: IL-12p70 induction in THP-1 cells by compound alone (ELISA); conditions: 10 or 100 μg/mL
Procedure: as §1

Row | SMILES | inhibition of IL-12p70 production induced by IFN-γ/SAC (IL-12p70 [1]) | induction of TNF-α production in the IFN-γ/SAC assay (TNF-α [2]) | inhibition of TNF-α production induced by IFN-γ/SAC (TNF-α [2]) | inhibition of IL-12p70 response induced by IFN-γ/SAC (IL-12p70 [1]) | inhibition of the cytokine response (IL-12p70) induced by IFN-γ/SAC (IL-12p70 [1]) | induction of TNF-α production (TNF-α [3]) | inhibition of TNF-α response induced by IFN-γ/SAC (TNF-α [2]; 10 μg/mL) | inhibition of the cytokine response (TNF-α) induced by IFN-γ/SAC (TNF-α [2]) | induction of IL-12p70 production (IL-12p70 [4]) | inhibition of TNF-α response induced by IFN-γ/SAC (TNF-α [2]; 100 μg/mL)
1 | CO[C@H]1O[C@H](CO)[C@@H](O)[C@H](O[C@H]2O[C@H](CSC)[C@H](O)[C@H]2O)[C@@H]1O [Compound 2, Methyl 3-O-(5-deoxy-5-methylthio-α-D-xylofuranosyl)-α-D-mannopyranoside] | inhibited induction, but to a degree intermediate between 3 and 34 | appeared to induce production of TNF-α to varying degrees | none of these compounds inhibited cytokine induction | – | – | – | – | – | – | –
2 | CO[C@H]1O[C@H](CO)[C@H](O)[C@H]1O [Compound 35, methyl α-D-xylofuranoside, reference compound] | inhibited induction, but to a degree intermediate between 3 and 34 | appeared to induce production of TNF-α to varying degrees | none of these compounds inhibited cytokine induction | – | – | – | – | – | – | –
3 | CO[C@H]1OC(CO)[C@@H](O[C@H]2O[C@H](C[S+](C)[O-])C(O)[C@@H]2O)[C@H](O)C1O (mixture of isomers) [Compound 34] | less active | – | weaker inhibitor than 3 | only a very modest effect | modest levels of inhibition; also recorded: modest inhibitory properties | Neither 3 nor 34, when tested at concentrations of 10 or 100 μg/mL, significantly induced the production of these two cytokines; also recorded: did not lead to production | less effective and comparable to AraLAM at 10 μg/mL | modest levels of inhibition; also recorded: modest inhibitory properties | Neither 3 nor 34, when tested at concentrations of 10 or 100 μg/mL, significantly induced the production of these two cytokines; also recorded: did not lead to production | –
4 | CO[C@H]1O[C@H](CO)[C@@H](O)[C@H](O)[C@@H]1O[C@H]1O[C@H](CSC)[C@H](O)[C@H]1O [Compound 1, Methyl 2-O-(5-deoxy-5-methylthio-α-D-xylofuranosyl)-α-D-mannopyranoside] | inhibited induction, but to a degree intermediate between 3 and 34 | appeared to induce production of TNF-α to varying degrees | none of these compounds inhibited cytokine induction | – | – | – | – | – | – | –
5 | CO[C@H]1O[C@H](CO)[C@@H](O[C@@H]2O[C@@H](CSC)[C@@H](O)[C@@H]2O)[C@H](O)[C@@H]1O [Compound 6, Methyl 4-O-(5-deoxy-5-methylthio-α-L-xylofuranosyl)-α-D-mannopyranoside] | inhibited induction, but to a degree intermediate between 3 and 34 | appeared to induce production of TNF-α to varying degrees | none of these compounds inhibited cytokine induction | – | – | – | – | – | – | –
6 | CO[C@H]1O[C@H](CO)[C@@H](O[C@H]2O[C@H](CSC)[C@H](O)[C@H]2O)[C@H](O)[C@@H]1O [Compound 3, Methyl 4-O-(5-deoxy-5-methylthio-α-D-xylofuranosyl)-α-D-mannopyranoside] | – | – | inhibited TNF-α production to a similar degree as a 5 μM concentration of ManLAM | only a very modest effect | modest levels of inhibition; also recorded: modest inhibitory properties | Neither 3 nor 34, when tested at concentrations of 10 or 100 μg/mL, significantly induced the production of these two cytokines; also recorded: did not lead to production | – | modest levels of inhibition; also recorded: modest inhibitory properties | Neither 3 nor 34, when tested at concentrations of 10 or 100 μg/mL, significantly induced the production of these two cytokines; also recorded: did not lead to production | level of inhibition comparable with ManLAM at 10 μg/mL
